Experimental data reported in patent US6503940B2, “Prodrugs for antimicrobial amidines” (The University of North Carolina at Chapel Hill, priority 1999, dated 2003).

Tests used:
[1] = system: Pneumocystis carinii; assay: Anti-Pneumocystis carinii pneumonia activity in immunosuppressed rat model; type: in vivo
Protocol: (§1) In the examples which follow, melting points were recorded using a Thomas-Hoover (Uni-Melt) capillary melting point apparatus and were uncorrected. TLC analysis was carried out on silica gel 60 F254 pre-coated aluminum sheets (0.20 mm layer thickness) (E. Merck of Whitehouse Station, N.J.) and detected under UV light. IR spectra were recorded using Perkin-Elmer Model 337 spectrometer sold by Perkin-Elmer of Norwalk, Conn. ^1H and ^13C NMR spectra were recorded employing a Varian GX400 or a Varian Unityplus 300 spectrometer (both sold by Varian of Palo Alto, Calif.) and chemical shifts (δ) are in ppm relative to TMS as internal standard. Mass Spectra were recorded on a VG Analytical 70-SE spectrometer (Georgia Institute of Technology, Atlanta, Ga.). IR spectra were recorded using a Perkin-Elmer 2000 instrument. […] All chloroformates were purchased from Aldrich Chemical Co. of St. Louis, Mo. Other chemicals and solvents were purchased from either Aldrich or Fischer Scientific of Houston, Tex. […] See Baijic, M., et al., Heterocycl. Commun., 1996, 2, pp. 135-140; Das, B. P., J. Med. Chem. 1977, 20, pp. 531-536; and Boykin, D. W., et al., Bioorg. Med. Chem Lett., 1996, 6, pp. 3017-3020. Anti-Pneumocystis carinii pneumonia activity screening was carried out according to published methods. See Jones, S. K. et al., Antimicrob. Agents Chemother., 1990, 34, pp. 1026-1030; Hall, J. E., et al., Antimicrob. Agents Chemother., 1998, 42, pp. 666-674; and Tidwell, R. R., et al., J. Med. Chem., 1990, 33, pp. 1252-1257. Compounds were routinely tested orally at 33 μmol/kg/day and intravenously at 22 μmol/kg/day. Saline- and pentamidine treated groups of rats were included as negative and positive controls, respectively.

[2] = Toxicity observed in rats of the anti-PCP screening; details: rat
Protocol: as §1

[3] = system: Pneumocystis carinii; assay: Anti-Pneumocystis carinii pneumonia activity in immunosuppressed rat model; type: in vivo; remark: listed apart in the source

Molecule	Cysts/g of lung (% of control) ([1]; Oral @ 33.0 μmol/kg/day)	Cysts/g of lung (% of control) ([1]; iv @ 22.0 μmol/kg/day)	Toxicity ([2]; Oral @ 33.0 μmol/kg/day)	Toxicity ([2]; iv @ 22.0 μmol/kg/day)	other results
CCSC(=O)N=C(N)c1ccc(-c2ccc(-c3ccc(C(N)=NC(=O)SCC)cc3)o2)cc1 [Compound 4, 2,5-bis[4-(N-thioethylcarbonyl)amidinophenyl]furan]	19.52 ± 14.22 % of control	83.01 ± 43.65 % of control	0	0	
2,5-bis[4-(N-2,2,2-trichloroethoxycarbonyl)amidinophenyl]furan [Compound 3]	8.59 ± 9.14 % of control	1.85 ± 1.79 % of control	0	0	
[H]/N=C(\N)c1ccc(-c2ccc(-c3ccc(/C(N)=N/[H])cc3)o2)cc1 [Compound 1, 2,5-Bis(4-amidinophenyl)furan, reference compound]					Cysts/g of lung (% of control) ([3]; Oral @ 39.8 μmol/kg/day): 44.52 ± 13.30 % of control; Cysts/g of lung (% of control) ([3]; iv @ 13.3 μmol/kg/day): 0.83 ± 0.36 % of control; Toxicity ([2]; Oral @ 39.8 μmol/kg/day): 0; Toxicity ([2]; iv @ 13.3 μmol/kg/day): 0
CCOC(=O)ON=C(N)c1ccc(-c2ccc(-c3ccc(C(N)=NOC(=O)OCC)cc3)o2)cc1 [Compound 11, 2,5-bis[4(N-ethoxycarbonyloxy)amidinophenyl]furan]	96.90 ± 48.48 % of control		0		Cysts/g of lung (% of control) ([3]; iv @ 34.7 μmol/kg/day): 1.66 ± 0.58 % of control; Toxicity ([2]; iv @ 34.7 μmol/kg/day): 0
NC(=NC(=O)Oc1ccc(F)cc1)c1ccc(-c2ccc(-c3ccc(C(N)=NC(=O)Oc4ccc(F)cc4)cc3)o2)cc1 [Compound 8, 2,5-bis[4-(N-(4-fluoro)phenoxycarbonyl)amidinophenyl]furan]	2.21 ± 0.33 % of control	0.02 ± 0.01 % of control	0	0	
N=C(N)c1ccc(OCCCCCOc2ccc(C(=N)N)cc2)cc1 [Pentamidine, 1,5-bis(4-amidinophenoxy)pentane, reference compound]		3.06 ± 0.90 % of control			
NC(=NC(=O)Oc1ccccc1)c1ccc(-c2ccc(-c3ccc(C(N)=NC(=O)Oc4ccccc4)cc3)o2)cc1 [Compound 7, 2,5-Bis[4-(N-phenoxycarbonyl)amidinophenyl]furan]	5.70 ± 5.15 % of control	3.61 ± 1.80 % of control	0	0	
NC(=NC(=O)OCc1ccccc1)c1ccc(-c2ccc(-c3ccc(C(N)=NC(=O)OCc4ccccc4)cc3)o2)cc1 [Compound 5, 2,5-bis[4-(N-benzyloxycarbonyl)amidinophenyl]furan]	18.09 ± 9.16 % of control				Cysts/g of lung (% of control) ([3]; iv @ 11.0 μmol/kg/day): 0.03 ± 0.02 % of control
COc1ccc(OC(=O)N=C(N)c2ccc(-c3ccc(-c4ccc(C(N)=NC(=O)Oc5ccc(OC)cc5)cc4)o3)cc2)cc1 [Compound 9, 2,5-bis[4-(N-(4-methoxy)phenoxycarbonyl)amidinophenyl]furan]	2.10 ± 2.08 % of control	0.02 ± 0.01 % of control	0	0	
COC(=O)NC(=N)c1ccc(-c2ccc(-c3ccc(C(=N)NC(=O)OC)cc3)o2)cc1 [Compound 2, 2,5-Bis[4-(N-methoxycarbonyl)amidinophenyl]furan]	49.68 ± 20.50 % of control	6.91 ± 6.01 % of control	0	0	
Cc1oc(=O)oc1COC(=O)N=C(N)c1ccc(-c2ccc(-c3ccc(C(N)=NC(=O)OCc4oc(=O)oc4C)cc3)o2)cc1 [Compound 6, 2,5-bis{4-[N-(5-methyl-2-oxo-1,3-dioxol-4-ene-1-yl)methoxycarbonyl]amidinophenyl}furan]	18.73 ± 11.87 % of control	0.02 ± 0.01 % of control	0	0	
CC(=O)OC(C)OC(=O)NC(=N)c1ccc(-c2ccc(-c3ccc(C(=N)NC(=O)OC(C)OC(C)=O)cc3)o2)cc1 (stereo not drawn) [Compound 10, 2,5-bis[4(1-Acetoxyethoxycarbonyl)amidinophenyl]furan]	57.16 ± 10.19 % of control		0		Cysts/g of lung (% of control) ([3]; iv @ 11.0 μmol/kg/day): 1.21 ± 1.02 % of control
